For test [1], the system named is Liver Injuries caused by Carbon Tetrachloride in Mice. The experiment in a line: Inhibitory effect against liver injuries caused by carbon tetrachloride in mice. Format: in vivo, mice (ICR, male). The note with it: CCl4 i.p., serum 24 h. From the text:
The carbon tetrachloride model(see, Philippe letteron et al., Biochemical Pharmacology, 39, 12, 2027-2034, 1990; Tips, 10, 1989; Kyoichi Kagawa et al., Japan J. Pharmacol., 42, 19-26, 1986; K. T. Liu and P. Lesca, Chem. Biol. Interactions, 41, 39-47, 1982; Richard O. et al., J. Biological Chemistry, 236, 2, 1961) is used most generally. This model has been established based on the internal phenomena that carbon tetrachloride is converted by cytochrome P-450 to a toxic free radical trichloromethyl(CCl3.), this radical is strongly bound to a thiol group of membrane protein on microsome of liver to form a lipid radical, which is then converted to a peroxy radical in the presence of oxygen to facilitate the peroxidation reaction of membrane lipid. That is, carbon tetrachloride suppresses protein biosynthesis in the liver, induces the increase of ALT and AST values in blood, and further causes histologically the centrilobular necrosis of the liver.
(§1) The degree of liver damage in the experimental animals was determined by measuring ALT and AST values in blood(see, Biol. Pharm. Bull., 20, 4, 381-385, 1997; Toxicology and Applied Pharmacology, 95, 1-11, 1988), and the hepatoprotective activity was calculated based on the following formula(see, Planta Medica, 55, 127-132, 1989). At this time, the hepatoprotective activity can also be calculated based on the same formula by replacing ALT value with AST value. [formula]
The hepatoprotective effect of the compound of the present invention was identified according to a known procedure(see, Philippe letteron et al., Biochemical Pharmacology, 39, 12, 2027-2034, 1990), and the protocol may be described in brief as follows.
Rats(SD, male, 180˜200 g) and mice(ICR, male, 27-35 g) used in the test were allowed in a condition of temperature 22±1° C. and relative humidity 60±5%. Feed and water were provided with no restriction while light and darkness were changed at an interval of 12 hours.
[…] […] Each group included 8 test animals, and the test compound was orally administered once per animal. After 30 minutes(rat) or 1 hour(mouse) from the administration of the test compound, 10% carbon tetrachloride in corn oil solution was intraperitoneally injected in doses of 2 ml/kg in rats and 0.15 ml/kg in mice. As the control compounds, silymarin and DDB were selected.
The test animals were provided with no feed and sufficient water for 24 hours from the administration of carbon tetrachloride. […] This blood was centrifuged to obtain sera. ALT and AST values in the sera were measured using blood chemistry analyzer(Vitalab, Selectra II, Merck). The statistical significance for the test result of each group was examined based on Student's t-test, and the result was recognized as having a statistical significance when its P value is less than 5%.

Test [2] concerns Liver Injuries caused by Thioacetamide in Mice. The experiment in a line: Inhibitory effect against liver injuries caused by thioacetamide in mice. It counts as in vivo, Mice (ICR, male). As to conditions: thioacetamide i.p., serum 24 h.
Text: The hepatoprotective effect of the compound of formula (1) was also identified by thioacetamide model(see, Masuda Yasusuke and Nakayama Nobue, Biochemical Pharmacology, 31, 17, 2713-2725, 1982; Liu Jie et al., Acta Pharmacologica Sinica, 16, 2, 97-102, 1995; Story D. L. et al., J. Tox. Environ. Health, 11, 483-501, 1983; Gomez-Lechon M. J. et al., Xenobiotica, 18, 6, 725-735, 1988) which is frequently used as an experimental model for liver injuries. This model has been established based on the phenomena that thioacetamide activated by P-450 S-oxidation inordinately increases the influx of calcium ion(Ca^++) into the liver cells, which in turn activates calcium ion-dependent phospholipase, protease and endonuclease, changes the cell frame through the calcium ion, exhausts ATP, and consequently destroys the liver cells. Thioacetamide also damages ureogenesis pathway in liver, and the metabolite of thioacetamide inhibits the transfer of RNA and makes the liver cell membranes unstable. A series of these activities results in the destruction of the liver cells, which in turn causes the increase of ALT and AST values in blood and also causes histologically the centrilobular necrosis.
as §1
The hepatoprotective effect of the compound of the present invention was identified according to a known procedure(see, Landon, E. J. et al., Biochemical Pharmacology, 35, 4, 697-705, 1986), and the protocol may be described in brief as follows.
Mice(ICR, male, 27˜35 g) as the test animal were allowed in a condition of temperature 22±1° C. and relative humidity 60±5%. Feed and water were provided with no restriction while light and darkness were changed at an interval of 12 hours.
The compound of the present invention was suspended in a solvent corn oil, and this suspension was administered in a dose of 10 ml/kg. Each group included 8 test animals, and the test compound was orally administered once per animal. After 1 hour from the administration of the test compound, thioacetamide solution(concentration: 90 mg/ml) in physiological saline was intraperitoneally injected in a dose of 1 ml/kg. As the control compounds, silymarin and DDB were selected.
The test animals were provided with no feed and sufficient water for 24 hours from the administration of thioacetamide. […] This blood was centrifuged to obtain sera. ALT and AST values in the sera were measured using blood chemistry analyzer(Vitalab, Selectra II, Merck). The statistical significance for the test result of each group was examined based on Student's t-test, and the result was recognized as having a statistical significance when its P value is less than 5%.

Molecules are shown by their SMILES.

As for `O/N=C/c1ccc2c(c1)OCO2` [Compound 1], the “Inhibitory Effect against Liver Injuries (%) ALT” value (“Inhibitory Effect … (%) ALT” for short) in test [1] (dose 1.9 mg/kg p.o. once) turned out to be 50%; in test [1] (dose 5.6 mg/kg p.o. once) it was 79%; in test [1] (dose 16.7 mg/kg p.o. once), 100%; in test [1] (dose 50 mg/kg p.o. once), 100%; in test [2] (dose 50 mg/kg p.o. once) it was 99%.
As for `COc1cc(/C=N/OCc2ccccn2)cc2c1OCO2` [Compound 13, 6-(2-((2-pyridyl)methoxy)-2-azavinyl)-4-methoxybenzo [d]1,3-dioxolane], the “Inhibitory Effect … (%) ALT” value in test [1] (dose 1.9 mg/kg p.o. once) is 35%; in test [1] (dose 5.6 mg/kg p.o. once), 43%; in test [1] (dose 16.7 mg/kg p.o. once) it was 69%; in test [1] (dose 50 mg/kg p.o. once), 100%; in test [2] (dose 50 mg/kg p.o. once), 91%.
In the case of `c1csc(-c2ccc3c(c2)OCO3)n1` [Compound 21, 2-(benzo[3,4-d]1,3-dioxolan-5-yl)-1,3-thiazole], the “Inhibitory Effect … (%) ALT” value in test [1] (dose 16.7 mg/kg p.o. once) is listed as 99%; in test [1] (dose 50 mg/kg p.o. once), 100%; in test [2] (dose 16.7 mg/kg p.o. once), 54%; in test [2] (dose 50 mg/kg p.o. once), 98%. Moreover, the “Inhibitory Effect against Liver Injuries(%) AST” value in test [1] (dose 16.7 mg/kg p.o. once) is 97%; in test [1] (dose 50 mg/kg p.o. once) it was 100%; in test [2] (dose 16.7 mg/kg p.o. once) it was 37%; in test [2] (dose 50 mg/kg p.o. once), 98%.
With `CC(=O)SCC(=O)c1ccc2c(c1)OCO2` [Compound 28, 1-(benzo[3,4-d]1,3-dioxolan-5-yl)-2-acetylthioethan-1-one], the “Inhibitory Effect … (%) ALT” value was 93% in test [1] (dose 16.7 mg/kg p.o. once), 100% in test [1] (dose 50 mg/kg p.o. once), 76% in test [2] (dose 16.7 mg/kg p.o. once) and 87% in test [2] (dose 50 mg/kg p.o. once). In addition, the “Inhibitory Effect against Liver Injuries(%) AST” value in test [1] (dose 16.7 mg/kg p.o. once) is 94%; in test [1] (dose 50 mg/kg p.o. once) it was 100%; in test [2] (dose 16.7 mg/kg p.o. once) it was 89%; in test [2] (dose 50 mg/kg p.o. once) it was 94%.
As to `COC(=O)c1cc(OC)c2c(c1-c1c(C(=O)OC)cc(OC)c3c1OCO3)OCO2` [DDB, reference compound], in test [1] (dose 50 mg/kg p.o. once), the “Inhibitory Effect … (%) ALT” value amounted to 22% and the “Inhibitory Effect against Liver Injuries(%) AST” value was found to be 6%. In test [2] (dose 50 mg/kg p.o. once), the “Inhibitory Effect … (%) ALT” value was found to be 21% and the “Inhibitory Effect against Liver Injuries(%) AST” value is −4%.

Values taken from patent US6693126B2, “Dihydroxyphenyl derivatives for hepatoprotection and treatment of liver diseases” (Choongwae Pharm. Co., Ltd., priority 2000, dated 2004).
